Results published in patent US6995185B2, “Δ1-pyrrolines used as pesticides” (Bayer Cropscience AG, priority 2000, dated 2006).

system: not listed separately; experiment: log P determination by HPLC on reversed-phase column (C 18), EEC directive 79/831 Annex V.A8; type: physicochemical; conditions: reversed-phase HPLC column (C 18), pH 2.3, pH 2.3 (marked a), 0.1% aqueous phosphoric acid/acetonitrile, 43° C.
Experimental: The log P values given in the tables and Preparation Examples above are determined in accordance with EEC directive 79/831 Annex V.A8 by HPLC (High Performance Liquid Chromatography) using a reversed-phase column (C 18). Temperature: 43° C. In the acidic range, the determination is carried out at pH 2.3 using the mobile phases 0.1% aqueous phosphoric acid and acetonitrile; linear gradient from 10% acetonitrile to 90% acetonitrile (marked^a) in the table). In the neutral range, the determination is carried out at pH 7.5 using the mobile phases 0.01-molar aqueous phosphate buffer solution and acetonitrile; linear gradient from 10% acetonitrile to 90% acetonitrile (marked^b) in the table). Calibration is carried out using unbranched alkan-2-ones (having 3 to 16 carbon atoms) with known log P values (determination of the log P values by the retention times using linear interpolation between two successive alkanones).

Row | chromatographic logP | SMILES
1 | 4.56 | CCCCN(C)C(=O)[C@H]1CC(c2c(F)cccc2F)=NC1c1ccc(-c2ccc(OC(F)(F)F)cc2)cc1 (stereo partly shown) [Example 70]
2 | 4.92 | CCCCCN(C)C(=O)[C@H]1CC(c2c(F)cccc2F)=NC1c1ccc(-c2ccc(OC(F)(F)F)cc2)cc1 (stereo partly shown) [Example 71]
3 | 4.18 | CCN(CC)C(=O)[C@H]1CC(c2c(F)cccc2F)=NC1c1ccc(-c2ccc(OC(F)(F)F)cc2)cc1 (stereo partly shown) [Example 72]
4 | 4.92 | CCCN(CCC)C(=O)[C@H]1CC(c2c(F)cccc2F)=NC1c1ccc(-c2ccc(OC(F)(F)F)cc2)cc1 (stereo partly shown) [Example 73]
5 | 5.65 | CCCCN(CCCC)C(=O)[C@H]1CC(c2c(F)cccc2F)=NC1c1ccc(-c2ccc(OC(F)(F)F)cc2)cc1 (stereo partly shown) [Example 74]
6 | 6.43 | CCCCCN(CCCCC)C(=O)[C@H]1CC(c2c(F)cccc2F)=NC1c1ccc(-c2ccc(OC(F)(F)F)cc2)cc1 (stereo partly shown) [Example 75]
7 | 3.82 | O=C([C@H]1CC(c2c(F)cccc2F)=NC1c1ccc(-c2ccc(OC(F)(F)F)cc2)cc1)N1CCCC1 (stereo partly shown) [Example 76]
8 | 4.32 | O=C([C@H]1CC(c2c(F)cccc2F)=NC1c1ccc(-c2ccc(OC(F)(F)F)cc2)cc1)N1CCCCC1 (stereo partly shown) [Example 77]
9 | 3.94 | O=C(NCc1ccccc1)[C@H]1CC(c2c(F)cccc2F)=NC1c1ccc(-c2ccc(OC(F)(F)F)cc2)cc1 (stereo partly shown) [Example 78]
10 | 4.46 | O=C(NCc1ccccc1Cl)[C@H]1CC(c2c(F)cccc2F)=NC1c1ccc(-c2ccc(OC(F)(F)F)cc2)cc1 (stereo partly shown) [Example 79]
11 | 4.46 | O=C(NCc1cccc(Cl)c1)[C@H]1CC(c2c(F)cccc2F)=NC1c1ccc(-c2ccc(OC(F)(F)F)cc2)cc1 (stereo partly shown) [Example 80]
12 | 4.41 | O=C(NCc1ccc(Cl)cc1)[C@H]1CC(c2c(F)cccc2F)=NC1c1ccc(-c2ccc(OC(F)(F)F)cc2)cc1 (stereo partly shown) [Example 81]
13 | 4.67 | O=C(NCC1CCCCC1)[C@H]1CC(c2c(F)cccc2F)=NC1c1ccc(-c2ccc(OC(F)(F)F)cc2)cc1 (stereo partly shown) [Example 82]
14 | 3.48 | O=C(NCC1CCCO1)[C@H]1CC(c2c(F)cccc2F)=NC1c1ccc(-c2ccc(OC(F)(F)F)cc2)cc1 (stereo partly shown) [Example 83]
15 | 3.33 | COCCNC(=O)[C@H]1CC(c2c(F)cccc2F)=NC1c1ccc(-c2ccc(OC(F)(F)F)cc2)cc1 (stereo partly shown) [Example 84]
16 | 4.03 | O=C(NCc1cccs1)[C@H]1CC(c2c(F)cccc2F)=NC1c1ccc(-c2ccc(OC(F)(F)F)cc2)cc1 (stereo partly shown) [Example 85]
17 | 3.94 | O=C(NCC(F)(F)F)[C@H]1CC(c2c(F)cccc2F)=NC1c1ccc(-c2ccc(OC(F)(F)F)cc2)cc1 (stereo partly shown) [Example 86]
18 | 3.78 | O=C(Nc1nccs1)[C@H]1CC(c2c(F)cccc2F)=NC1c1ccc(-c2ccc(OC(F)(F)F)cc2)cc1 (stereo partly shown) [Example 87]
19 | 3.94 | COC(=O)c1cnc(NC(=O)[C@H]2CC(c3c(F)cccc3F)=NC2c2ccc(-c3ccc(OC(F)(F)F)cc3)cc2)s1 (stereo partly shown) [Example 88]
20 | 4.46 | O=C(NC1CCC(C(F)(F)F)CC1)[C@H]1CC(c2c(F)cccc2F)=NC1c1ccc(-c2ccc(OC(F)(F)F)cc2)cc1 (stereo partly shown) [Example 89]
21 | 3.49 | O=C([C@H]1CC(c2c(F)cccc2F)=NC1c1ccc(-c2ccc(OC(F)(F)F)cc2)cc1)N1CCOCC1 (stereo partly shown) [Example 90]
22 | 4.37 | Cc1ccc(CNC(=O)[C@H]2CC(c3c(F)cccc3F)=NC2c2ccc(-c3ccc(OC(F)(F)F)cc3)cc2)cc1 (stereo partly shown) [Example 91]
23 | 4.87 | O=C(Nc1ccc(OC(F)(F)F)cc1)[C@H]1CC(c2c(F)cccc2F)=NC1c1ccc(-c2ccc(OC(F)(F)F)cc2)cc1 (stereo partly shown) [Example 92]
24 | 4.87 | O=C(NCc1ccc(Cl)cc1Cl)[C@H]1CC(c2c(F)cccc2F)=NC1c1ccc(-c2ccc(OC(F)(F)F)cc2)cc1 (stereo partly shown) [Example 93]
25 | 4.18 | COc1ccccc1CNC(=O)[C@H]1CC(c2c(F)cccc2F)=NC1c1ccc(-c2ccc(OC(F)(F)F)cc2)cc1 (stereo partly shown) [Example 94]
26 | 4.03 | COc1cccc(CNC(=O)[C@H]2CC(c3c(F)cccc3F)=NC2c2ccc(-c3ccc(OC(F)(F)F)cc3)cc2)c1OC (stereo partly shown) [Example 95]
27 | 4.72 | Cc1cc(C)cc(CNC(=O)[C@H]2CC(c3c(F)cccc3F)=NC2c2ccc(-c3ccc(OC(F)(F)F)cc3)cc2)c1 (stereo partly shown) [Example 96]
28 | 4.23 | O=C(NCc1ccc(F)cc1F)[C@H]1CC(c2c(F)cccc2F)=NC1c1ccc(-c2ccc(OC(F)(F)F)cc2)cc1 (stereo partly shown) [Example 97]
29 | 4.41 | Cc1cccc(CNC(=O)[C@H]2CC(c3c(F)cccc3F)=NC2c2ccc(-c3ccc(OC(F)(F)F)cc3)cc2)c1 (stereo partly shown) [Example 98]

system: Liriomyza trifolii; experiment: Liriomyza test; type: in vivo; conditions: 1000 ppm, bean plants (Phaseolus vulgaris) dipped
Experimental: Liriomyza Test • Solvent: 3 parts by weight of dimethylformamide • Emulsifier: 1 part by weight of alkylaryl polyglycol ether To produce a suitable preparation of active compound, 1 part by weight of active compound is mixed with the stated amounts of solvent and emulsifier, and the concentrate is diluted with emulsifier-containing water to the desired concentration. Bean plants (Phaseolus vulgaris) which are infested by eggs and development stages of […] (Liriomyza trifolii) are dipped into a preparation of active compound of the desired concentration. After the desired period of time, the effect in % is determined. 100% means that all […] have been killed; 0% means that none of the […] have been killed.

Row | SMILES | Kill rate in % after 7 days
30 | COC(=O)C1CC(c2c(F)cccc2F)=NC1c1ccc(-c2ccc(OC(F)(F)F)cc2)cc1 (stereo not shown) [drawing 145] | 100%

system: Meloidogyne icognita; experiment: Meloidogyne test; type: in vivo; conditions: 20 ppm, lettuce in sand, nematicidal action by formation of galls
Experimental: Meloidogyne Test • Solvent: 30 parts by weight of dimethylformamide • Emulsifier: 1 part by weight of alkylaryl polyglycol ether To produce a suitable preparation of active compound, 1 part by weight of active compound is mixed with the stated amounts of solvent and emulsifier, and the concentrate is diluted with emulsifier-containing water to the desired concentration. Vessels are filled with sand, solution of active compound, Meloidogyne icognita egg/larvae suspension and lettuce seeds. The lettuce seeds germinate and the plants develop. On the roots, galls develop. After the desired period of time, the nematicidal action is determined in % by the formation of galls. 100% means that no galls have been found; 0% means that the number of galls on the treated plants corresponds to that of the untreated control.

Row | SMILES | Kill rate in % after 14 days
31 | COC(=O)C1CC(c2c(F)cccc2F)=NC1c1ccc(-c2ccc(OC(F)(F)F)cc2)cc1 (stereo not shown) [drawing 146] | 100%
32 | N#CC1CC(c2c(F)cccc2F)=NC1c1ccc(-c2ccc(OC(F)(F)F)cc2)cc1 (stereo not shown) [drawing 147] | 90%

system: larvae of the mustard beetle (Phaedon cochloeariae); experiment: Phaedon larvae test; type: in vivo; conditions: 1000 ppm, cabbage leaves (Brassica oleracea) dipped
Experimental: (§1) Phaedon larvae Test • Solvent: 30 parts by weight of dimethylformamide • Emulsifier: 1 part by weight of alkylaryl polyglycol ether To produce a suitable preparation of active compound, 1 part by weight of active compound is mixed with the stated amounts of solvent and emulsifier, and the concentrate is diluted with emulsifier-containing water to the desired concentration. Cabbage leaves (Brassica oleracea) are treated by being dipped into the preparation of active compound of the desired concentration and are populated with larvae of the mustard beetle (Phaedon cochloeariae) while the leaves are still moist. After the desired period of time, the kill in % is determined. 100% means that all beetle larvae have been killed; 0% means that none of the beetle larvae have been killed.

Row | SMILES | Kill rate in % after 7 days
33 | COC(=O)C1CC(c2c(F)cccc2F)=NC1c1ccc(-c2ccc(OC(F)(F)F)cc2)cc1 (stereo not shown) [drawing 148] | 100%
34 | N#CC1CC(c2c(F)cccc2F)=NC1c1ccc(-c2ccc(OC(F)(F)F)cc2)cc1 (stereo not shown) [drawing 149] | 100%
35 | COC(=O)C1CC(c2ccccc2Cl)=NC1c1ccc(-c2ccc(OC(F)(F)F)cc2)cc1 (stereo not shown) [drawing 150] | 100%

system: caterpillars of the army worm (Spodoptera frugiperda); experiment: Spodoptera frugiperda test; type: in vivo; conditions: 1000 ppm, cabbage leaves (Brassica oleracea) dipped
Experimental: as §1, with “Spodoptera frugiperda” for “Phaedon larvae”, “caterpillars” for “larvae”, “army worm (Spodoptera frugiperda)” for “mustard beetle (Phaedon cochloeariae)”, “caterpillars” for “beetle larvae”

Row | SMILES | Kill rate in % after 7 days
36 | N#CC1CC(c2ccccc2Cl)=NC1c1ccc(-c2ccc(OC(F)(F)F)cc2)cc1 (stereo not shown) | 100%
37 | CC(C)c1ccc(-c2ccc(C3N=C(c4ccccc4Cl)CC3C#N)cc2)cc1 (stereo not shown) | 100%
38 | COC(=O)C1CC(c2c(F)cccc2F)=NC1c1ccc(-c2ccc(OC(F)(F)F)cc2)cc1 (stereo not shown) [drawing 151] | 100%
39 | COC(=O)C1CC(c2ccccc2Cl)=NC1c1ccc(-c2ccc(OC(F)(F)F)cc2)cc1 (stereo not shown) [drawing 152] | 100%
40 | N#CC1CC(c2c(F)cccc2F)=NC1c1ccc(-c2ccc(OC(F)(F)F)cc2)cc1 (stereo not shown) [drawing 154] | 100%
